This is an account of results in US20140171433A1, “MULTIPLE MYELOMA TREATMENT” (YM Biosciences Australia Pty Ltd, priority 2011, published 2014).

Assay [1] relates to Ras/MAPK. The note with it: cited from earlier work; for IL-6 induced activation of Ras/MAPK: refs [20, 22].
Assay [2] deals with AKT. Particulars: PTEN mutated OPM2 MM cells, ref [30]; cited from earlier work.
Assay [3] concerns Cyclin D2. The note with it: two HMCL, ref [22]; cited from earlier work.
Assay [4] relates to p-STAT3 (pY705). The assay is described as follows: IL-6 induced STAT3 phosphorylation in HMCL (intracellular FACS, western blot). The class given is cell-based, human. The method, then: HMCL were treated with CYT387 (1 or 2 μM) for 60 minutes and then stimulated with 10 ng/ml IL-6 for 15 minutes. Protein lysates of CYT387 treated and untreated HMCL were made with RIPA Buffer (50 mM Tris.HCl pH 7.4, 150 mM NaCl, 1 mM PMSF, 1 mM EDTA, 5 μg/ml Aprotinin, 5 μg/ml Leupeptin, 1% Triton X-100, 1% Sodium deoxycholate and 0.1% SDS). Briefly cells were incubated in RIPA buffer on ice for 30-60 minutes before being centrifuged at 16,100×g for 20 minutes at 4° C. and the supernatant collected. Protein concentration was quantified using DC Protein Assay (Bio-Rad) as per manufacturer's instructions. Subsequently, 100 μg of each protein lysate was separated by 10% SDS-PAGE and blotted onto nitrocellulose (Hybond ECL, Amersham) using the Bio-Rad semi-dry transfer system. Membranes were blocked with 5% skim milk powder 0.1% Tween-20/PBS for 60 minutes then incubated with mouse monoclonal antiphospho-STAT3 (pY705, Santa Cruz), mouse monoclonal anti-STAT3 (Santa Cruz) or mouse monoclonal anti-a-tubulin (Sigma-Aldrich) for 1-2 hours at room temperature or overnight at 4° C. The blots were washed three times for 15 minutes in 0.1% Tween-20/PBS, then incubated with secondary HRP lagged antibody (swine anti-rabbit Ig HRP (Dako) or rabbit anti-mouse Ig HRP (Dako)) for 1-2 hours at room temperature before washing as above. […]
In general terms: In western blotting, separated proteins are transferred to a membrane and probed.

In assay [5] the test system is p-STAT3 (pY705). The assay is described as follows: STAT3 phosphorylation in HMCL in coculture with bone marrow stromal cells (HS5 or primary BMSC). The class given is cell-based, human. Particulars: 15 minutes coculture with BMSC (with or without contact), co-treatment with 2 μM CYT387. The method, then:
(§1) Activation of the JAK/STAT, PI3K/AKT and Ras/MAPK pathways was investigated using intracellular flow cytometry to measure the phosphorylation of STAT3 at tyrosine 705 (p-STAT3), AKT at serine 473 (p-AKT) and ERK1/2 at threonine 202 and tyrosine 204 (p-ERK). HMCL were stimulated alone with 10 ng/ml IL-6±[…] IGF-1 or stimulated in CC with HS5 stromal cells or primary BMSC with or without CYT387 treatment. For CC HS5 and primary BMSC were seeded into a 24 well plate at 2×10^5 cells/ml and allowed to establish for 4 hours, after which HMCL prestained with CD38 or CD138 FITC (BD) were added. MM cells were stimulated alone (10 ng/ml IL-6 or 5 ng/ml IL-6 and 100 ng/ml IGF-1), or in CC (direct CC with stroma or transwell (TW) CC with stroma) with or without either 60 minutes of CYT387 pretreatment or 15 minutes CYT387 co-treatment. After stimulation±treatment, MM cells were harvested and fixed with 2% paraformaldehyde for 10-30 minutes, washed then permeabilised with methanol overnight. Methanol was washed off and the cells were resuspended in p-STAT3 PE (BD), p-AKT PE (BD) or p-ERK (BD) and stained for 45-60 minutes at room temperature. Unbound antibody was washed off and the cells resuspended in 2% FBS PBS and acquired by FACS.

The test system of assay [6] is p-AKT (pS473). Description: IL-6 and IGF-1 induced p-AKT, intracellular FACS, OCI-MY1. The class given is cell-based, human. Particulars: 2 μM CYT387 cotreatment, 15 minutes. The method, then: as §1
Assay [7] relates to p-ERK1/2 (pT202/pY204). Description: IL-6 and IGF-1 induced p-ERK, intracellular FACS, U266. The class given is cell-based, human. Particulars: 2 μM CYT387 cotreatment, 15 minutes. The method, then: as §1
Assay [8] relates to HMCL (LP-1, NCI-H929, OPM2, RPMI-8226, ANBL-6, OCI-MY1, U266 and XG-1). The assay is described as follows: MTS cell proliferation assay on a panel of 8 HMCL. The class given is cell-based, human. The method, then:
(§2) The viability and proliferation of CYT387 treated HMCL and untreated/vehicle controls were determined using various methods as described previously. Proliferation was measured first using Celltiter 96 AQeous one solution cell proliferation assay MTS reagent (Promega) on a panel of 8 HMCL. Cells were cultured at 2.0×10^5 cell/ml in 100 μl fresh media in 96 well plates for 24, 48 and 72 hours with CYT387 (0.1-5 μM). 20 μl of MTS reagent was added for the final 4 hours of treatment and the plates were read at 490 nm using a Fluostar Optima plate reader (BMG Labtech). The viable cell numbers of a panel of 5 HMCL that were treated with CYT387 with and without IL-6 co-treatment was also measured by trypan blue staining and haemocytometer count. The HMCL NCI-H929, OCI-MY1 and U266 were then selected for further analysis. Apoptosis of CYT387 treated cells was assessed by FACS with Annexin-V and propidium iodide (PI) staining. HMCLs were treated for 24 or 72 hours with 1 or 5 μM CYT387 then harvested and washed in Annexin Buffer (0.01 HEPES, 0.14 M NaCl, 2.5 mM CaCl2, pH 7.4) and stained with Annexin-V FITC (Biosource) made up in Annexin Buffer for 30 minutes at room temperature. Unbound antibody was then washed off with Atmexin Buffer and cells were resuspended in Annexin Buffer with 62.5 ng/mi PI (Sigma-Aldrich) and analyzed by FACS.

Assay [9] has as its system HMCL (NCI-H929, OCI-MY1 and U266). The assay is described as follows: Viable cell number by haemocytometer with and without IL-6. The class given is cell-based, human. The note with it: CYT387 0.5-1 μM, 10 ng/ml IL-6, 72 hours. The method, then:
as §2

The subject of assay [10] is NCI-H929. Description: Viable cell number by haemocytometer. The class given is cell-based. Particulars: Homo sapiens; NCI-H929, 1 μM, after 72 hours; read-out: inhibition of cell proliferation. The protocol:
as §2

For assay [11], the system named is OCI-MY1. The assay is described as follows: Viable cell number by haemocytometer. The class given is cell-based. Particulars: Homo sapiens; OCI-MY1, 0.5 μM, after 72 hours; read-out: inhibition of cell proliferation. The method, then: as §2
The subject of assay [12] is U266. The assay is described as follows: Viable cell number by haemocytometer. The class given is cell-based. The note with it: Homo sapiens, U-266; U266, 1 μM, after 72 hours; read-out: inhibition of cell proliferation. The protocol:
as §2

For assay [13], the system named is HMCL (NCI-H929, OCI-MY1 and U266). The assay is described as follows: Cell cycle analysis by FACS (PI/RNase). The class given is cell-based, human. The method, then: (§3) The effect of CYT387 treatment on HMCL cell cycling was measured after 24 and 72 hours. CYT387 (1 or 5 μM) treated and untreated HMCL were harvested, washed in PBS and resuspended in 100 μl PBS. Cells were fixed with 1 ml of cold 70% ethanol while being vortexed. Tubes were stored at −20° C. until analysis. Once all samples were collected tubes were centrifuged at 500×g for 10 minutes, the supernatant was carefully removed and the cells washed in 5 ml PBS. After the final wash cells were resuspended 250-500 μl of PI/RNase staining buffer (BD) and incubated in the dark at room temperature for 15 minutes before being analyzed by FAGS.
On the technique in general: A flow cytometer gives signals particle by particle.

Assay [14] relates to NCI-H929 cells. The assay is described as follows: Cell cycle analysis by FACS (PI/RNase). The class given is cell-based, human. Particulars: after 24 and 72 hours treatment. The method, then: as §3
Assay [15] concerns HMCL (NCIH929, OCI-MY1 and U266). Description: Annexin-V/Propidium Iodide FACS apoptosis. The class given is cell-based, human. Particulars: Annexin-V/PI; 3 HMCL. The method, then:
as §2

Assay [16] has as its system NCI-H929. Description: Annexin-V/Propidium Iodide FACS apoptosis. The class given is cell-based. The note with it: Homo sapiens, read-out: reduction in viable cells. The method, then: as §2
Assay [17] deals with NCI-H929, OCI-MY1 and U266. Description: PI FACS dose effect and synergy (Calcusyn) in HMCL. The class given is cell-based, human. Particulars: 24 and 48 hours. The protocol: For the synergy experiments HMCL were treated with CYT387 in combination with bortezomib or melphalan for 24 and 48 hours before being harvested and resuspended in FACS Buffer (0.5% HI FBS in PBS) supplemented with 62.5 ng/ml PI (Sigma-Aldrich). Cells were immediately analysed by FACS. The proportion of PI positive cells was quantitated by subtracting the background death of untreated cells. Single drug treated cells were compared to combination treated cells and synergism was calculated using Calcusyn software (Biosoft).

Assay [18] has as its system CD38+CD45− primary MM cells. The assay is described as follows: Apoptosis (Apo 2.7) of ex-vivo primary patient MM cells, single agent and combination. The class given is cell-based, human. Particulars: 24 hours, Calcusyn. The source says: Primary MM samples were obtained from Bone Marrow Aspirates from relapsed and refractory MM patients following written informed consent with approval from the Alfred Hospital Research and Ethics Committee and isolated and treated as previously described. Briefly, bone marrow mononuclear cells (BMMC) were isolated with Ficoll-Paque Plus (Amersham Biosciences), washed in PBS and red blood cells were lysed with NH4Cl solution (8.29 g/L ammonium chloride, 0.037 g/L EDTA, 1 g/L potassium bicarbonate). Cells were then washed again in PBS and quantitated by haemocytometer. BMMC samples were then cultured in complete RPMI-1640 media (as above for HMCL) for 24 hours. Subsequently the BMMC were plated at 5×10^5 cells/ml and were treated with CYT387 (5-50 μM) alone or (dependant on cell numbers) in combination with bortezoniib (5-40 nM) or melphalan (50-200 μM) for 24 and/or 48 hours. Drug-induced MM specific cell apoptosis was then compared to untreated and vehicle controls by staining for CD45 FITC (BD), CD38 PerCP-Cy5.5 (BD) and Apo 2.7 PE (Immunotech) to determine apoptosis in CD45−CD38+ MM cells. Samples were subsequently analyzed by FACS. Primary bone marrow stromal cells (BMSC) were also collected from patient BMMC, cells that adhered to the flask after an initial 24 hour culture were cultured with continued selection for adherent cells over several passages. […]

Setting [19] is: CYT387 in combination with bortezomib.
[20] abbreviates: CYT387 in combination with melphalan.

Entries after “also recorded” stand apart in the source; their conditions may differ. Read-outs that look alike come from different tables or passages of the source.

As for `N#C/C(=C/c1ccc(O)c(O)c1)C(=O)NCc1ccccc1` [AG490], the “IL-6 induced Ras/MAPK activation” value in assay [1] (in the hands of others, ref [31]) is listed as “no decrease”. In [1], the “IL-6 induced activation of Ras/MAPK” value is reported as “reduce IL-6 induced activation of Ras/MAPK”. The AKT activation entry in [2] is recorded as “could also abrogate AKT activation”.

In the case of `Cc1cc(Nc2nc(N[C@@H](C)c3ncc(F)cn3)ncc2Cl)n[nH]1` [AZD1480], the “IL-6 induced activation of Ras/MAPK” value in assay [1] was “reduce IL-6 induced activation of Ras/MAPK”. In addition, the “Cyclin D2” value in assay [3] was “inhibited Cyclin D2”.

For the molecule `N#CCNC(=O)c1ccc(-c2ccnc(Nc3ccc(N4CCOCC4)cc3)n2)cc1` [CYT387, N-(cyanomethyl)-4-[2-[[4-(4-morpholinyl)phenyl]amino]-4-pyrimidinyl]-benzamide], in assay [4] (CYT387 0.5-2 μM for 1 hour, then IL-6 for 15 minutes, NCI-H929, OCI-MY1 and U266, FACS and western blotting), the “phosphorylation of STAT3 in IL-6 stimulated samples” value is “inhibited the phosphorylation of STAT3”. In addition, in assay [4] (western blot, CYT387 then IL-6 stimulation), the “Total STAT3 protein” value is given as “unaffected”. In addition, in assay [5], the “amount of p-STAT3 in the HMCL” value is given as “dramatically reduced the amount of p-STAT3”. In assay [6], the “p-AKT activation after IL-6 and IGF-1 stimulation” value is “significantly reduced; also recorded: dramatic reduction”. Also, in assay [7], the “IL-6 and IGF-1 induced p-ERK” value was “significantly inhibited; also recorded: significant reduction”. In addition, the “most sensitive HMCL to CYT387 treatment (MTS)” value in assay [8] (72 hours) was “NCI-H929 and XG-1 were the most sensitive”. Besides, in assay [8] (CYT387 0.1-5 μM, 24, 48 and 72 hours, 8 HMCL), the “cell proliferation response by MTS assay” value was “Six of 8 HMCL had a time and dose dependent response”. Besides, the “proliferation of HMCL in the presence of IL-6” value in assay [9] is “able to reduce the proliferation of HMCL in culture even in the presence of IL-6”. Further, the inhibition at 1 µM in [10] was found to be 50%; in assay [12] it was 44%. Further, in assay [11], the inhibition at 0.5 µM amounted to 50%. The “cells in the G2/M phase of the cell cycle” value in assay [13] (CYT387 1-5 μM, NCI-H929, OCI-MY1 and U266) was “marked accumulation of cells in the G2/M phase”. The polyploid population result in assay [13] (CYT387 treated samples) is recorded as “additional polyploid population was found”. The “increase in cells in G2/M compared to untreated or vehicle treated control” value in assay [14] was “more than a two fold increase”. Also, the “proportion of apoptotic cells” value in [15] is given as “increased proportion of apoptotic cells was detected in all 3 HMCL”. Besides, the cytotoxicity at 5 µM in [16] (NCI-H929, 5 μM CYT387, 24 hours) was 21%; in [16] (NCI-H929, 5 μM CYT387, 72 hours), 52%. The “apoptosis (PI+ cells), dose effect curves” value in [17] (CYT387 0.5-10 μM) is “induced apoptosis in 3 HMCL in a time and dose dependent manner”. For the same molecule, the “synergy with bortezomib (combination index, Calcusyn)” value in [17] (setting [19]) is given as “displayed synergism; also recorded: synergistic or nearly additive in 18/24 combinations”. Besides, in assay [17] (setting [20]), the “synergy with melphalan (combination index, Calcusyn)” value is “displayed synergism; also recorded: Synergy is seen”. In assay [18] (setting [19]), the “synergy with bortezomib in primary patient cells” value was “synergy was also observed with bortezomib in some patients/doses”. For the same molecule, in [18] (setting [20]), the “synergy with melphalan in primary patient cells” value is recorded as “synergize with melphalan in ⅔ patients”.
